Test results published in publication PMC11822212, “High-throughput screening identifies Aurora kinase B as a critical therapeutic target for Merkel cell carcinoma” (Nature Communications, 2025).
Like-named read-outs stand apart in the source and are kept apart here.

Key:
MCC13 cells (VN-MCC) = test: qHTS cell viability (CellTiter-Glo, 72 h; primary and follow-up small molecule screen); format: cell-based, human
MCC26 cells (VN-MCC) = test: as above; format: cell-based, human
UISO cells (VN-MCC) = test: as above; format: cell-based, human
WAGA cells (VP-MCC) = test: as above; format: cell-based, human
MKL-1 cells (VP-MCC) = test: as above; format: cell-based, human
MKL-2 cells (VP-MCC) = test: as above; format: cell-based, human
HACAT cells = test: qHTS cell viability (CellTiter-Glo, 72 h; primary screen), control cell line; format: cell-based, human
HEK293T cells = test: as above; format: cell-based, human
NIH-3T3 cells = test: as above; format: cell-based, mouse
CRL-7250 cells = test: as above; format: cell-based
[1] = tested on: MCC cell lines (WAGA, MKL-1, MKL-2, MCC13, MCC26, UISO); test: qHTS cell viability, all six MCC cell lines as a group (mean AUC, MCC.avg); format: cell-based, human
[2] = tested on: VP-MCC cell lines (WAGA, MKL-1, MKL-2); test: qHTS cell viability, VP-MCC cell lines as a group (mean AUC, VP.MCC.avg); format: cell-based, human
[3] = tested on: VN-MCC cell lines (MCC13, MCC26, UISO); test: qHTS cell viability, VN-MCC cell lines as a group (mean AUC, VN.MCC.avg); format: cell-based, human
[4] = tested on: control cell lines (HACAT, HEK293T, CRL-7250, NIH-3T3); test: qHTS cell viability, control cell lines as a group (mean AUC, Control.avg); format: cell-based
[5] = tested on: six MCC cell lines and four control cell lines; test: qHTS cell viability, all 10 cell lines screened; format: cell-based
[6] = MIPE library, 11-point DRC, sheet S2E
[7] = MIPE library, 11-point DRC, control cell line, sheet S2E
[8] = NPC library, qHTS dose-response AUC, MCC13
[9] = NPC library, qHTS dose-response AUC, UISO
[10] = NPC library, qHTS dose-response AUC, WAGA
[11] = NPC library, qHTS dose-response AUC, MKL1
[12] = NPC library, qHTS dose-response AUC, MKL2
[13] = NPC library, qHTS dose-response AUC, HACAT control
[14] = NPC library; qHTS dose-response AUC, HEK293T control
[15] = NPC library, qHTS dose-response AUC, NIH3T3 control
[16] = NPC library, qHTS dose-response AUC, CRL7250 control
[17] = NPC library, mean AUC of six MCC cell lines
[18] = NPC library, mean AUC of VP-MCC cell lines
[19] = NPC library, therapeutic window: Control avg AUC minus VP-MCC avg AUC
[20] = NPC library, mean AUC of VN-MCC cell lines
[21] = NPC library, therapeutic window: Control avg AUC minus VN-MCC avg AUC
[22] = NPC library, mean AUC of control cell lines
[23] = NPC library, therapeutic window: Control avg AUC minus MCC avg AUC

SMILES: C=C1C(=O)[C@]23[C@H](O)[C@H]1CC[C@H]2[C@@]12CO[C@]3(O)[C@@H](O)[C@@H]1C(C)(C)CC[C@@H]2O [Oridonin]
- MCC13_AUC (MCC13 cells (VN-MCC); [6]): 444.187
- MCC26_AUC (MCC26 cells (VN-MCC); [6]): 486.711
- UISO_AUC (UISO cells (VN-MCC); [6]): 376.109
- WAGA_AUC (WAGA cells (VP-MCC); [6]): 351.193
- MKL1_AUC (MKL-1 cells (VP-MCC); [6]): 359.043
- MKL2_AUC (MKL-2 cells (VP-MCC); [6]): 318.538
- HACAT_AUC (HACAT cells; [7]): 442.799
- HEK293T_AUC (HEK293T cells; [7]): 399.439
- NIH3T3_AUC (NIH-3T3 cells; [7]): 414.657
- CRL7250_AUC (CRL-7250 cells; [7]): 432.105
- MCC_Avg_AUC ([1]; MIPE library, mean AUC of six MCC cell lines, sheet S2E): 389.297
- Control-VP-MCC ([2]; MIPE library, Control AUC minus VP-MCC AUC (therapeutic window), sheet S2E): 79.3252
- VP-MCC_Avg_AUC ([2]; MIPE library, mean AUC of VP-MCC cell lines, sheet S2E): 342.925
- Control-VN-MCC ([3]; MIPE library, Control AUC minus VN-MCC AUC (therapeutic window), sheet S2E): -13.4189
- VN-MCC_Avg_AUC ([3]; MIPE library, mean AUC of VN-MCC cell lines, sheet S2E): 435.669
- Control_Avg_AUC ([4]; MIPE library, mean AUC of control cell lines, sheet S2E): 422.25
- Control-MCC ([5]; MIPE library, Control AUC minus MCC AUC (therapeutic window), sheet S2E): 32.9531

SMILES: COc1cc(C[C@@H](C)N)c(OC)cc1C.Cl
- MCC13_AUC (MCC13 cells (VN-MCC)): 469.394
- MCC26_AUC (MCC26 cells (VN-MCC)): 411.829
- UISO_AUC (UISO cells (VN-MCC)): 418.828
- WAGA_AUC (WAGA cells (VP-MCC)): 120.519
- MKL1_AUC (MKL-1 cells (VP-MCC)): 46.808
- MKL2_AUC (MKL-2 cells (VP-MCC)): 72.1855
- HACAT_AUC (HACAT cells): 438.262
- HEK293T_AUC (HEK293T cells): 304.503
- NIH3T3_AUC (NIH-3T3 cells): 358.481
- CRL7250_AUC (CRL-7250 cells): 239.588
- MCC_Avg_AUC [1]: 256.594
- Control-VP-MCC [2]: 255.371
- VP-MCC_Avg_AUC [2]: 79.8375
- Control-VN-MCC [3]: -98.1417
- VN-MCC_Avg_AUC [3]: 433.35
- Control_Avg_AUC [4]: 335.209
- Control-MCC [5]: 78.6147

SMILES: CCCCC1C(=O)N(c2ccccc2)N(c2ccc(O)cc2)C1=O (stereo not drawn) [Oxyphenbutazone]
- MCC13_AUC (MCC13 cells (VN-MCC); [8]): 405.464
- MCC26_AUC (MCC26 cells (VN-MCC); NPC library; qHTS dose-response AUC, MCC26): 450.163
- UISO_AUC (UISO cells (VN-MCC); [9]): 403.541
- WAGA_AUC (WAGA cells (VP-MCC); [10]): 370.924
- MKL1_AUC (MKL-1 cells (VP-MCC); [11]): 340.624
- MKL2_AUC (MKL-2 cells (VP-MCC); [12]): 317.862
- HACAT_AUC (HACAT cells; [13]): 428.222
- HEK293T_AUC (HEK293T cells; [14]): 361.816
- NIH3T3_AUC (NIH-3T3 cells; [15]): 433.353
- CRL7250_AUC (CRL-7250 cells; [16]): 449.026
- MCC_Avg_AUC [1, 17]: 381.43
- VP-MCC_Avg_AUC [2, 18]: 343.137
- Control-VP-MCC [2, 19]: 74.9673
- VN-MCC_Avg_AUC [3, 20]: 419.723
- Control-VN-MCC [3, 21]: -1.619
- Control_Avg_AUC [4, 22]: 418.104
- Control-MCC [5, 23]: 36.6743

SMILES: CCCCCCCCOc1ccccc1C(=O)Nc1ccc(C(=O)OCC[N+](C)(CC)CC)cc1 [Octylonium bromide]
- MCC13_AUC (MCC13 cells (VN-MCC); [8]): 437.863
- MCC26_AUC (MCC26 cells (VN-MCC); NPC library, qHTS dose-response AUC, MCC26): 427.666
- UISO_AUC (UISO cells (VN-MCC); [9]): 389.713
- WAGA_AUC (WAGA cells (VP-MCC); [10]): 419.958
- MKL1_AUC (MKL-1 cells (VP-MCC); [11]): 364.23
- MKL2_AUC (MKL-2 cells (VP-MCC); [12]): 359.851
- HACAT_AUC (HACAT cells; [13]): 466.719
- HEK293T_AUC (HEK293T cells; NPC library, qHTS dose-response AUC, HEK293T control): 439.212
- HEK293T_AUC (HEK293T cells; [14]): 439.213
- NIH3T3_AUC (NIH-3T3 cells; [15]): 470.129
- CRL7250_AUC (CRL-7250 cells; [16]): 483.471
- MCC_Avg_AUC ([1]; NPC library, mean AUC of all 6 MCC cell lines): 399.88
- MCC_Avg_AUC [1, 17]: 399.88
- Control-VP-MCC ([2]; Control AUC minus VP-MCC AUC): 83.5367
- VP-MCC_Avg_AUC [2, 18]: 381.346
- Control-VP-MCC [2, 19]: 83.5367
- Control-VN-MCC ([3]; Control AUC minus VN-MCC AUC): 46.4688
- VN-MCC_Avg_AUC [3, 20]: 418.414
- Control-VN-MCC [3, 21]: 46.4688
- Control_Avg_AUC [4, 22]: 464.883
- Control-MCC [5, 23]: 65.0028
